Data: patent publication US20210298306A1, “PESTICIDALLY ACTIVE AZOLE-AMIDE COMPOUNDS” (SYNGENTA PARTICIPATIONS AG, priority 2018, published 2021)

Experiments:
Format in all cases: in vivo
Diabrotica balteata = experiment: Example B1: Diabrotica balteata (corn root worm), maize sprouts sprayed, L2 larvae; details: 96 h, application rate 200 ppm, 4 days after infestation, read-out: effect in at least one of the two categories (mortality or growth inhibition)
Protocol: Example B1: Diabrotica Balteata (Corn Root Worm)
Maize sprouts placed onto an agar layer in 24-well microtiter plates were treated with aqueous test solutions prepared from 10,000 ppm DMSO stock solutions by spraying. After drying, the plates were infested with L2 larvae (6 to 10 per well). The samples were assessed for mortality and growth inhibition in comparison to untreated samples 4 days after infestation.
(§1) The following compounds gave an effect of at least 80% in at least one of the two categories (mortality or growth inhibition) at an application rate of 200 ppm: […]

Spodoptera littoralis [1] = experiment: Example B7: Spodoptera littoralis (Egyptian cotton leaf worm), cotton leaf discs sprayed, L1 larvae; details: foliar, 72 h, application rate 200 ppm, 3 days after infestation, read-out: control in at least one of the categories (mortality, anti-feedant effect, or growth inhibition)
Protocol: Example B7: Spodoptera littoralis (Egyptian Cotton Leaf Worm)
Cotton leaf discs were placed onto agar in 24-well microtiter plates and sprayed with aqueous test solutions prepared from 10,000 ppm DMSO stock solutions. After drying the leaf discs were infested with five L1 larvae. The samples were assessed for mortality, anti-feeding effect, and growth inhibition in comparison to untreated samples 3 days after infestation. Control of Spodoptera littoralis by a test sample is given when at least one of the categories mortality, anti-feedant effect, and growth inhibition is higher than the untreated sample.

Plutella xylostella = experiment: Example B4: Plutella xylostella (diamond back moth), artificial diet, 24-well, eggs; details: 192 h, application rate 200 ppm, 8 days after infestation, read-out: effect in at least one of the two categories (mortality or growth inhibition)
Protocol: Example B4: Plutella xylostella (Diamond Back Moth)
24-well microtiter plates with artificial diet were treated with aqueous test solutions prepared from 10,000 ppm DMSO stock solutions by pipetting. After drying, Plutella eggs were pipetted through a plastic stencil onto a gel blotting paper and the plate was closed with it. The samples were assessed for mortality and growth inhibition in comparison to untreated samples 8 days after infestation.
as §1

Euschistus heros = experiment: Example B2: Euschistus heros (neotropical brown stink bug), soybean leaves sprayed, N2 nymphs; details: 120 h, application rate 200 ppm, 5 days after infestation, read-out: effect in at least one of the two categories (mortality or growth inhibition)
Protocol: Example B2: Euschistus heros (Neotropical Brown Stink Bug)
Soybean leaves on agar in 24-well microtiter plates were sprayed with aqueous test solutions prepared from 10,000 ppm DMSO stock solutions. After drying the leaves were infested with N2 nymphs. The samples were assessed for mortality and growth inhibition in comparison to untreated samples 5 days after infestation.
as §1

Myzus persicae [2] = experiment: Example B6: Myzus persicae (green peach aphid), intrinsic activity, sucrose solution, 24-well; details: 120 h, test rate 12 ppm, 5 days after infestation
Excerpt: Example B6: Myzus persicae (Green Peach Aphid). Intrinsic Activity
Test compounds prepared from 10,000 ppm DMSO stock solutions were applied by pipette into 24-well microtiter plates and mixed with sucrose solution. The plates were closed with a stretched Parafilm. A plastic stencil with 24 holes was placed onto the plate and infested pea seedlings were placed directly on the Parafilm. The infested plate was closed with a gel blotting paper and another plastic stencil and then turned upside down. The samples were assessed for mortality 5 days after infestation.

Myzus persicae [3] = experiment: Example B5: Myzus persicae (green peach aphid), feeding/contact activity, sunflower leaf discs; details: foliar, 144 h, application rate 200 ppm, 6 days after infestation, Myzus persicae mixed ages
Protocol: Example B5: Myzus persicae (Green Peach Aphid):Feeding/Contact Activity
(§2) Sunflower leaf discs were placed onto agar in a 24-well microtiter plate and sprayed with aqueous test solutions prepared from 10,000 ppm DMSO stock solutions. After drying, the leaf discs were infested with an aphid population of mixed ages. The samples were assessed for mortality 6 days after infestation.

Spodoptera littoralis [4] = experiment: Example B8: Spodoptera littoralis (Egyptian cotton leaf worm), uptake by lettuce roots from agar, eggs; details: 144 h, test rate 12.5 ppm, 6 days after infestation, lettuce root uptake, read-out: effect in at least one of the three categories (mortality, anti-feeding, or growth inhibition)
Excerpt: Example B8: Spodoptera littoralis (Egyptian Cotton Leaf Worm)
Test compounds were applied by pipette from 10,000 ppm DMSO stock solutions into 24-well plates and mixed with agar. Lettuce seeds were placed onto the agar and the multi well plate was closed by another plate which contained also agar. After 7 days the compound was absorbed by the roots and the lettuce grew into the lid plate. The lettuce leaves were then cut off into the lid plate. Spodoptera eggs were pipetted through a plastic stencil onto a humid gel blotting paper and the lid plate was closed with it. The samples were assessed for mortality, anti-feedant effect and growth inhibition in comparison to untreated samples 6 days after infestation.
The following compounds gave an effect of at least 80% in at least one of the three categories (mortality, anti-feeding, or growth inhibition) at a test rate of 12.5 ppm: […]

Thrips tabaci = experiment: Example B9: Thrips tabaci (onion thrips), feeding/contact activity, sunflower leaf discs; details: foliar, 144 h; application rate 200 ppm; 6 days after infestation; Thrips tabaci mixed ages
Protocol: Example B9: Thrips tabaci (Onion Thrips) Feeding/Contact Activity
as §2, with “on” for “onto”, “in” for “in a”, “plates” for “plate”, “drying” for “drying,”, “a thrips” for “an aphid”

CC(NC(=O)c1cc(OC(F)F)cc(C(F)(F)F)c1)c1ncnn1-c1ncccc1F (centres unmarked) [P12, 3-(difluoromethoxy)-N-[1-[2-(3-fluoro-2-pyridyl)-1,2,4-triazol-3-yl]ethyl]-5-(trifluoromethyl) benzamide]
≥ 80%: percent effect (mortality or growth inhibition) at 200 ppm (Diabrotica balteata) | percent control (mortality, anti-feedant effect or growth inhibition) at 200 ppm (Spodoptera littoralis [1]) | percent effect (mortality or growth inhibition) at 200 ppm (Plutella xylostella) | percent effect (mortality or growth inhibition) at 200 ppm (Euschistus heros)

CC(NC(=O)c1cc(OCC(F)(F)F)cc(C(F)(F)F)c1)c1ncnn1-c1ncccn1 (centres unmarked) [P7, N-[1-(2-pyrimidin-2-yl-1,2,4-triazol-3-yl)ethyl]-3-(2,2,2-trifluoroethoxy)-5-(trifluoromethyl) benzamide]
≥ 80%: percent effect (mortality or growth inhibition) at 200 ppm (Diabrotica balteata) | percent control (mortality, anti-feedant effect or growth inhibition) at 200 ppm (Spodoptera littoralis [1]) | percent effect (mortality or growth inhibition) at 200 ppm (Plutella xylostella) | mortality at 12 ppm (Myzus persicae [2]) | mortality at 200 ppm (Myzus persicae [3]) | percent effect (mortality or growth inhibition) at 200 ppm (Euschistus heros)

CC(NC(=O)c1cc(SCC(F)(F)F)cc(C(F)(F)F)c1)c1ncnn1-c1ccccn1 (centres unmarked) [P9, N-[1-[2-(2-pyridyl)-1,2,4-triazol-3-yl]ethyl]-3-(2,2,2-trifluoroethylsulfanyl)-5-(trifluoromethyl) benzamide]
≥ 80%: percent effect (mortality or growth inhibition) at 200 ppm (Diabrotica balteata) | percent effect (mortality or growth inhibition) at 200 ppm (Plutella xylostella)

CC(c1ncnn1-c1ncccn1)N(CC1CC1)C(=O)c1cc(OC(F)(F)C(F)F)cc(C(F)(F)F)c1 (centres unmarked) [P3, N-(cyclopropylmethyl)-N-[1-(2-pyrimidin-2-yl-1,2,4-triazol-3-yl)ethyl]-3-(1,1,2,2-tetrafluoroethoxy)-5-(trifluoromethyl)benzamide]
≥ 80%: percent effect (mortality or growth inhibition) at 200 ppm (Diabrotica balteata) | percent control (mortality, anti-feedant effect or growth inhibition) at 200 ppm (Spodoptera littoralis [1]) | percent effect (mortality or growth inhibition) at 200 ppm (Plutella xylostella) | mortality at 12 ppm (Myzus persicae [2]) | percent effect (mortality, anti-feeding or growth inhibition) at 12.5 ppm (Spodoptera littoralis [4]) | mortality at 200 ppm (Thrips tabaci) | percent effect (mortality or growth inhibition) at 200 ppm (Euschistus heros)

CC(NC(=O)c1cc(SCC(F)(F)F)cc(C(F)(F)F)c1)c1ncnn1-c1ncccc1F (centres unmarked) [P13, N-[1-[2-(3-fluoro-2-pyridyl)-1,2,4-triazol-3-yl]ethyl]-3-(2,2,2-trifluoroethylsulfanyl)-5-(trifluoromethyl) benzamide]
≥ 80%: percent effect (mortality or growth inhibition) at 200 ppm (Diabrotica balteata)

CC(NC(=O)c1cc(OC(F)F)cc(C(F)(F)F)c1)c1ncnn1-c1ncccn1 (centres unmarked) [P8, 3-(difluoromethoxy)-N-[1-(2-pyrimidin-2-yl-1,2,4-triazol-3-yl)ethyl]-5-(trifluoromethyl) benzamide]
≥ 80%: percent effect (mortality or growth inhibition) at 200 ppm (Diabrotica balteata) | percent control (mortality, anti-feedant effect or growth inhibition) at 200 ppm (Spodoptera littoralis [1]) | percent effect (mortality or growth inhibition) at 200 ppm (Plutella xylostella) | mortality at 12 ppm (Myzus persicae [2]) | percent effect (mortality, anti-feeding or growth inhibition) at 12.5 ppm (Spodoptera littoralis [4]) | mortality at 200 ppm (Thrips tabaci) | mortality at 200 ppm (Myzus persicae [3]) | percent effect (mortality or growth inhibition) at 200 ppm (Euschistus heros)

CC(NC(=O)c1cc(OCC(F)(F)F)cc(C(F)(F)F)c1)c1ncnn1-c1ccc(F)cn1 (centres unmarked) [P17, N-[1-[2-(5-fluoro-2-pyridyl)-1,2,4-triazol-3-yl]ethyl]-3-(2,2,2-trifluoroethoxy)-5-(trifluoromethyl) benzamide]
≥ 80%: percent effect (mortality or growth inhibition) at 200 ppm (Diabrotica balteata) | percent control (mortality, anti-feedant effect or growth inhibition) at 200 ppm (Spodoptera littoralis [1]) | percent effect (mortality or growth inhibition) at 200 ppm (Plutella xylostella) | percent effect (mortality or growth inhibition) at 200 ppm (Euschistus heros)

CC(NC(=O)c1cc(OC(F)F)cc(C(F)(F)F)c1)c1ncnn1-c1ccc(F)cn1 (centres unmarked) [P15, 3-(difluoromethoxy)-N-[1-[2-(5-fluoro-2-pyridyl)-1,2,4-triazol-3-yl]ethyl]-5-(trifluoromethyl) benzamide]
≥ 80%: percent effect (mortality or growth inhibition) at 200 ppm (Diabrotica balteata) | percent control (mortality, anti-feedant effect or growth inhibition) at 200 ppm (Spodoptera littoralis [1]) | percent effect (mortality or growth inhibition) at 200 ppm (Plutella xylostella) | mortality at 12 ppm (Myzus persicae [2]) | percent effect (mortality, anti-feeding or growth inhibition) at 12.5 ppm (Spodoptera littoralis [4]) | percent effect (mortality or growth inhibition) at 200 ppm (Euschistus heros)

CC(NC(=O)c1cc(OC(F)F)cc(C(F)(F)F)c1)c1ncnn1-c1ccccn1 (centres unmarked) [P11, 3-(difluoromethoxy)-N-[1-[2-(2-pyridyl)-1,2,4-triazol-3-yl]ethyl]-5-(trifluoromethyl) benzamide]
≥ 80%: percent effect (mortality or growth inhibition) at 200 ppm (Diabrotica balteata) | percent control (mortality, anti-feedant effect or growth inhibition) at 200 ppm (Spodoptera littoralis [1]) | percent effect (mortality or growth inhibition) at 200 ppm (Plutella xylostella) | percent effect (mortality, anti-feeding or growth inhibition) at 12.5 ppm (Spodoptera littoralis [4])

CC(c1ncnn1-c1ncccn1)N(CC1CC1)C(=O)c1cc(C(F)F)cc(C(F)(F)F)c1 (centres unmarked) [P1, N-(cyclopropylmethyl)-3-(difluoromethyl)-N-[1-(2-pyrimidin-2-yl-1,2,4-triazol-3-yl)ethyl]-5-(trifluoromethyl) benzamide]
≥ 80%: percent effect (mortality or growth inhibition) at 200 ppm (Diabrotica balteata) | percent control (mortality, anti-feedant effect or growth inhibition) at 200 ppm (Spodoptera littoralis [1]) | percent effect (mortality or growth inhibition) at 200 ppm (Plutella xylostella) | mortality at 12 ppm (Myzus persicae [2]) | mortality at 200 ppm (Thrips tabaci) | percent effect (mortality or growth inhibition) at 200 ppm (Euschistus heros)

CC(NC(=O)c1cc(SCC(F)(F)F)cc(C(F)(F)F)c1)c1ncnn1-c1ccc(F)cn1 (centres unmarked) [P16, N-[1-[2-(5-fluoro-2-pyridyl)-1,2,4-triazol-3-yl]ethyl]-3-(2,2,2-trifluoroethylsulfanyl)-(trifluoromethyl) benzamide]
≥ 80%: percent effect (mortality or growth inhibition) at 200 ppm (Diabrotica balteata) | percent control (mortality, anti-feedant effect or growth inhibition) at 200 ppm (Spodoptera littoralis [1]) | percent effect (mortality or growth inhibition) at 200 ppm (Plutella xylostella)

CC(NC(=O)c1cncc(OC(F)F)c1)c1ncnn1-c1ncccn1 (centres unmarked) [P24, 5-(difluoromethoxy)-N-[1-(2-pyrimidin-2-yl-1,2,4-triazol-3-yl)ethyl]pyridine-3-carboxamide]
≥ 80%: percent effect (mortality or growth inhibition) at 200 ppm (Diabrotica balteata) | mortality at 200 ppm (Myzus persicae [3]) | percent effect (mortality or growth inhibition) at 200 ppm (Euschistus heros)

CC(NC(=O)c1cc(SCC(F)(F)F)cc(C(F)(F)F)c1)c1ncnn1-c1ncccn1 (centres unmarked) [P6, N-[1-(2-pyrimidin-2-yl-1,2,4-triazol-3-yl)ethyl]-3-(2,2,2-trifluoroethylsulfanyl)-5-(trifluoromethyl) benzamide]
≥ 80%: percent effect (mortality or growth inhibition) at 200 ppm (Diabrotica balteata) | percent control (mortality, anti-feedant effect or growth inhibition) at 200 ppm (Spodoptera littoralis [1]) | percent effect (mortality or growth inhibition) at 200 ppm (Plutella xylostella)

CC(NC(=O)c1cc(OCC(F)(F)F)cc(C(F)(F)F)c1)c1ncnn1-c1ccccn1 (centres unmarked) [P10, N-[1-[2-(2-pyridyl)-1,2,4-triazol-3-yl]ethyl]-3-(2,2,2-trifluoroethoxy)-5-(trifluoromethyl) benzamide]
≥ 80%: percent effect (mortality or growth inhibition) at 200 ppm (Diabrotica balteata) | percent control (mortality, anti-feedant effect or growth inhibition) at 200 ppm (Spodoptera littoralis [1]) | percent effect (mortality or growth inhibition) at 200 ppm (Plutella xylostella) | percent effect (mortality or growth inhibition) at 200 ppm (Euschistus heros)

CC(NC(=O)c1cncc(OC(F)F)c1)c1ncnn1-c1ncccc1F (centres unmarked) [P22, 5-(difluoromethoxy)-N-[1-[2-(3-fluoro-2-pyridyl)-1,2,4-triazol-3-yl]ethyl]pyridine-3-carboxamide]
≥ 80%: percent effect (mortality or growth inhibition) at 200 ppm (Plutella xylostella)
